In ChEMBL document CHEMBL5143620, “Discovery of tricyclic HIV-1 integrase-LEDGF/p75 allosteric inhibitors by intramolecular direct arylation reaction” (Bioorg Med Chem Lett, 2022):
Where “and” joins values, the source holds several entries; their conditions need not be identical. Equal entries are not always repeated.

Key:
[1] = test system: Human immunodeficiency virus 1; assay: Antiviral activity against wild type HIV-1 infected in human MT4 cells assessed as inhibition of viral infection by MTT assay; format: functional, organism-based
MT4 = assay: Cytotoxicity against human MT4 cells assessed as reduction in cell viability by MTT assay; format: functional
[2] = test system: Human immunodeficiency virus 1; assay: Antiviral activity against […] HIV-1 harboring T174I mutant infected in human MT4 cells assessed as inhibition of viral infection by MTT assay; format: functional, organism-based
[3] = Oral bioavailability in rat at 1 mg/kg; format: ADME, organism-based; details: in vivo
[4] = AUC in rat at 0.5 mg/kg, iv; format: ADME, organism-based; parameters: dose 0.5 mg/kg, route iv; details: in vivo
[5] = Metabolic stability in human liver microsomes; format: ADME, Microsome
[6] = Elimination half life in rat at 0.5 mg/kg, iv; format: ADME, organism-based; details: in vivo, read-out: beta t1/2 (converted)
[7] = Metabolic stability in rat liver microsomes; format: ADME, Microsome
[8] = Human immunodeficiency virus 1, MT4

Row | Structure (SMILES) | EC50 [1, 8] | CC50 (MT4; Homo sapiens, MT4) | EC50 [2, 8] | other results
1 | Cc1ccc(-c2c(C)c3c(c(C)c2[C@H](OC(C)(C)C)C(=O)O)N(C)S(=O)(=O)c2ccccc2-3)cc1 | 76 nM | 19000 nM |  | 
2 | Cc1ccc(-c2c(C)c3c(c(C)c2[C@H](OC(C)(C)C)C(=O)O)N(S(C)(=O)=O)Cc2ccc(C)cc2-3)cc1 | 12 nM | 13000 nM | 930 nM | 
3 | Cc1c(-c2ccc3c(c2)CCCO3)c([C@H](OC(C)(C)C)C(=O)O)c(C)c2c1-c1c(F)cccc1CN2S(C)(=O)=O | 6.2 nM | 29000 nM | 170 nM | 
4 | Cc1ccc(-c2c(C)c3c(c(C)c2[C@H](OC(C)(C)C)C(=O)O)N(S(C)(=O)=O)Cc2cccnc2-3)cc1 | 23 nM | 70000 nM | 3200 nM | 
5 | Cc1ccc(-c2c(C)c3c(c(C)c2[C@H](OC(C)(C)C)C(=O)O)N(S(C)(=O)=O)Cc2ccc(F)cc2-3)cc1 | 11 nM | 15000 nM | 1200 nM | 
6 | Cc1ccc(-c2c(C)c3c(c(C)c2[C@H](OC(C)(C)C)C(=O)O)N(S(C)(=O)=O)Cc2cccc(Cl)c2-3)cc1 | 15 nM | 16000 nM | 540 nM | 
7 | Cc1ccc(-c2c(C)c3c(c(C)c2[C@H](OC(C)(C)C)C(=O)O)N(S(C)(=O)=O)Cc2ncccc2-3)cc1 | 58 nM | 61000 nM | > 5000 nM | 
8 | Cc1ccc(-c2c([C@H](OC(C)(C)C)C(=O)O)c(C)c3[nH]c4ccccc4c3c2C)cc1 | 310 nM | 13000 nM |  | 
9 | Cc1ccc(-c2c(C)c3c(c(C)c2[C@H](OC(C)(C)C)C(=O)O)N(S(C)(=O)=O)Cc2c(F)cccc2-3)cc1 | 10 nM | 24000 nM | 510 nM | 
10 | Cc1ccc(-c2c(C)c3c(c(C)c2[C@H](OC(C)(C)C)C(=O)O)N(S(C)(=O)=O)Cc2cnccc2-3)cc1 | 65 nM | 65000 nM | > 5000 nM | 
11 | Cc1ccc(-c2c(C)c3c(c(C)c2[C@H](OC(C)(C)C)C(=O)O)N(S(C)(=O)=O)Cc2cc(C#N)ccc2-3)cc1 | 7.3 nM | 35000 nM | 720 nM | 
12 | Cc1ccc(-c2c([C@H](OC(C)(C)C)C(=O)O)c(C)c3c(c2C)c2ccccc2c(=O)n3C)cc1 | 730 nM | 25000 nM |  | 
13 | Cc1ccc(-c2c(C)cc(N(Cc3ccccc3)S(C)(=O)=O)c(C)c2[C@H](OC(C)(C)C)C(=O)O)cc1 | 56 nM | 14000 nM |  | 
14 | Cc1ccc(-c2c(C)c3c(c(C)c2[C@H](OC(C)(C)C)C(=O)O)N(S(C)(=O)=O)Cc2cccc(F)c2-3)c(C)c1 |  | 18000 nM | 1100 nM | EC50 ([2]; mt4): 1500 nM; EC50 ([1]; mt4): 3.7 nM and 9.5 nM; CC50 (MT4): 11000 nM
15 | Cc1ccc(-c2c(C)c3c(c(C)c2[C@H](OC(C)(C)C)C(=O)O)N(S(C)(=O)=O)Cc2ccccc2-3)cc1 | 11 nM | 21000 nM | 810 nM | 
16 | COc1ccc(-c2c(C)c3c(c(C)c2[C@H](OC(C)(C)C)C(=O)O)N(S(C)(=O)=O)Cc2cccc(F)c2-3)cc1 | 6.4 nM | 31000 nM | 320 nM | 
17 | Cc1c(-c2ccc(Cl)cc2)c([C@H](OC(C)(C)C)C(=O)O)c(C)c2c1-c1c(F)cccc1CN2S(C)(=O)=O | 8.6 nM | 16000 nM | 340 nM | 

Row | Structure (SMILES) | EC50 [1, 8] | CC50 (MT4; Homo sapiens, MT4) | EC50 [2, 8] | other results
18 | Cc1c(-c2c(C)c3c(c(C)c2[C@H](OC(C)(C)C)C(=O)O)N(S(C)(=O)=O)Cc2cccc(F)c2-3)ccc2c1CCCO2 |  | 17000 nM |  | EC50 ([2]; mt4): 48 nM and 420 nM; EC50 ([1]; mt4): 1.9 nM and 6.7 nM; CC50 (MT4): 22000 nM
19 | Cc1ccc(-c2c(C)c3c(c(C)c2[C@H](OC(C)(C)C)C(=O)O)N(S(C)(=O)=O)Cc2cccc(F)c2-3)cc1 | 5.5 nM | 17000 nM | 290 nM | 
20 | Cc1ccc(-c2c(C)c3c(c(C)c2[C@H](OC(C)(C)C)C(=O)O)N(S(C)(=O)=O)Cc2ccncc2-3)cc1 | 20 nM | 25000 nM | > 5000 nM | 
21 | Cc1ccc(-c2c(C)c3c(c(C)c2[C@H](OC(C)(C)C)C(=O)O)N(S(C)(=O)=O)Cc2cccc(F)c2-3)c(O)c1 |  |  |  | bioavailability [3]: 17.8%; AUC [4]: 21.2 ng·h/mL; EC50 ([1]; mt4): 4.6 nM and 21 nM; Stability [5]: 76.3%; CC50 (MT4): 59000 nM and 14000 nM; half-life [6]: 3.5 h; Stability [7]: 60.7%
22 | Cc1ccc(-c2c(C)c3c(c(C)c2[C@H](OC(C)(C)C)C(=O)O)N(C)Cc2ccccc2-3)cc1 | 120 nM | 8400 nM |  | 
23 | Cc1ccc(-c2c(C)c3c(c(C)c2[C@H](OC(C)(C)C)C(=O)O)N(S(C)(=O)=O)Cc2cc(C)ccc2-3)cc1 | 4.9 nM | 14000 nM | 440 nM | 
24 | CC(=O)N1Cc2ccccc2-c2c(C)c(-c3ccc(C)cc3)c([C@H](OC(C)(C)C)C(=O)O)c(C)c21 | 30 nM | 27000 nM |  | 
25 | Cc1ccc(-c2c(C)c3c(c(C)c2[C@H](OC(C)(C)C)C(=O)O)N(S(C)(=O)=O)Cc2cc(Cl)ccc2-3)cc1 | 3.9 nM | 13000 nM | 330 nM | 
26 | COc1ccc2c(c1)CN(S(C)(=O)=O)c1c(C)c([C@H](OC(C)(C)C)C(=O)O)c(-c3ccc(C)cc3)c(C)c1-2 | 2.9 nM | 17000 nM | 270 nM | 
27 | Cc1ccc(-c2c(C)c3c(c(C)c2[C@H](OC(C)(C)C)C(=O)O)N(S(C)(=O)=O)Cc2c(C)cccc2-3)cc1 | 8 nM | 17000 nM | 670 nM | 
28 | Cc1c(-c2ccc(F)cc2)c([C@H](OC(C)(C)C)C(=O)O)c(C)c2c1-c1c(F)cccc1CN2S(C)(=O)=O | 12 nM | 32000 nM | 860 nM | 
29 | Cc1c(-c2ccc3c(c2)NCCO3)c([C@H](OC(C)(C)C)C(=O)O)c(C)c2c1-c1c(F)cccc1CN2S(C)(=O)=O | 10 nM | 55000 nM | 150 nM | 
30 | Cc1ccc(-c2c(C)c3c(c(C)c2[C@H](OC(C)(C)C)C(=O)O)N(S(C)(=O)=O)Cc2cc(C(F)(F)F)ccc2-3)cc1 | 3 nM | 10000 nM | 460 nM | 
31 | Cc1ccc(-c2c(C)c3c(c(C)c2[C@H](OC(C)(C)C)C(=O)O)N(S(C)(=O)=O)Cc2cccc(C)c2-3)cc1 | 20 nM | 17000 nM | 600 nM | 
32 | Cc1c(-c2ccc3c(c2)NCCC3)c([C@H](OC(C)(C)C)C(=O)O)c(C)c2c1-c1c(F)cccc1CN2S(C)(=O)=O | 4.3 nM | 30000 nM | 99 nM | 
33 | Cc1ccc(-c2c(C)c3c(c(C)c2[C@H](OC(C)(C)C)C(=O)O)N(S(C)(=O)=O)Cc2cc(F)ccc2-3)cc1 | 5.7 nM | 19000 nM | 360 nM | 
34 | Cc1nc2ccccc2c(-c2ccc3c4c(ccnc24)CCO3)c1[C@H](OC(C)(C)C)C(=O)O [BI-224436] | 20 nM | > 50000 nM | > 5000 nM | 
